From PubChem BioAssay AID1963983 (Molecular Pharmacology Branch, DTP, NCI, 2024)
Values belong to the compound of their own block, whether it stands above or below them.

Tested on: 186277-243-T-J2-PDC multi-cell spheroid viability
Test: Anticancer human tumor 186277-243-T-J2-PDC patient-derived colon adenocarcinoma cell line growth inhibition [PI3K]
Conditions: for IC50: curve of first compound; for viability, T/C: stronger effect = lower value
Method in brief: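 Spheroid viability read-out. Co-cultures contained the tumor line plus HUVEC and human MSCs. Each agent was paired with a PI3K inhibitor (inavolisib, alpelisib, duvelisib, copanlisib) across half-log dilutions starting at clinical Cmax, or at 10 microM when Cmax was unknown.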

[1] = second compound 0.0316 µM, first compound 0.0316 µM
[2] = second compound 0.0316 µM, first compound 0.1 µM
[3] = second compound 0.0316 µM, first compound 0.316 µM
[4] = second compound 0.0316 µM, first compound 1 µM
[5] = second compound 0.0316 µM, first compound 3.16 µM
[6] = second compound 0.0316 µM, first compound 10 µM
[7] = second compound 0.1 µM, first compound 0.0316 µM
[8] = second compound 0.1 µM, first compound 0.1 µM
[9] = second compound 0.1 µM, first compound 0.316 µM
[10] = second compound 0.1 µM, first compound 1 µM
[11] = second compound 0.1 µM, first compound 3.16 µM
[12] = second compound 0.1 µM, first compound 10 µM
[13] = second compound 0.316 µM, first compound 0.0316 µM
[14] = second compound 0.316 µM, first compound 0.1 µM
[15] = second compound 0.316 µM, first compound 0.316 µM
[16] = second compound 0.316 µM, first compound 1 µM
[17] = second compound 0.316 µM, first compound 3.16 µM
[18] = second compound 0.316 µM, first compound 10 µM
[19] = second compound 1 µM, first compound 0.0316 µM
[20] = second compound 1 µM, first compound 0.1 µM
[21] = second compound 1 µM, first compound 0.316 µM
[22] = second compound 1 µM, first compound 1 µM
[23] = second compound 1 µM, first compound 3.16 µM
[24] = second compound 1 µM, first compound 10 µM
[25] = second compound 3.16 µM, first compound 0.0316 µM
[26] = second compound 3.16 µM, first compound 0.1 µM
[27] = second compound 3.16 µM, first compound 0.316 µM
[28] = second compound 3.16 µM, first compound 1 µM
[29] = second compound 3.16 µM, first compound 3.16 µM
[30] = second compound 3.16 µM, first compound 10 µM
[31] = second compound 10 µM, first compound 0.0316 µM
[32] = second compound 10 µM, first compound 0.1 µM
[33] = second compound 10 µM, first compound 0.316 µM
[34] = second compound 10 µM, first compound 1 µM
[35] = second compound 10 µM, first compound 3.16 µM
[36] = second compound 10 µM, first compound 10 µM
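Note: spheroids exposed to compounds for seven days before viability reading.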
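Throughout, for viability, T/C: 100% = DMSO vehicle control viability.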

IC50 (second compound 0.0316 µM): 0.0941 µM
IC50 (second compound 0.1 µM): 0.0931 µM
IC50 (second compound 0.316 µM): 0.0875 µM
IC50 (second compound 1 µM): 0.0789 µM
IC50 (second compound 3.16 µM): 0.0529 µM
IC50 (second compound 10 µM): < 0.0316 µM
Compound: C#Cc1c(F)ccc2cc(O)cc(-c3ncc4c(N5CC6CCC(C5)N6)nc(OCC56CCCN5CC(F)C6)nc4c3F)c12 (stereo not drawn) + CC(Nc1ncnc2nc[nH]c12)c1cc2cccc(Cl)c2c(=O)n1-c1ccccc1
viability, T/C [1]: 98.9%
viability, T/C [2]: 47.3%
viability, T/C [3]: 19.4%
viability, T/C [4]: 11.3%
viability, T/C [5]: 10.3%
viability, T/C [6]: 9.72%
viability, T/C [7]: 106%
viability, T/C [8]: 46.3%
viability, T/C [9]: 21.2%
viability, T/C [10]: 13.3%
viability, T/C [11]: 16.1%
viability, T/C [12]: 8%
viability, T/C [13]: 102%
viability, T/C [14]: 41%
viability, T/C [15]: 25.5%
viability, T/C [16]: 20.3%
viability, T/C [17]: 14.3%
viability, T/C [18]: 11.2%
viability, T/C [19]: 93.6%
viability, T/C [20]: 38%
viability, T/C [21]: 18%
viability, T/C [22]: 19.6%
viability, T/C [23]: 11%
viability, T/C [24]: 6.62%
viability, T/C [25]: 68.6%
viability, T/C [26]: 26.3%
viability, T/C [27]: 14.9%
viability, T/C [28]: 12.1%
viability, T/C [29]: 7.19%
viability, T/C [30]: 4.96%
viability, T/C [31]: 31.9%
viability, T/C [32]: 12.6%
viability, T/C [33]: 8.73%
viability, T/C [34]: 6.7%
viability, T/C [35]: 4.26%
viability, T/C [36]: 4.02%

IC50 (second compound 0.0316 µM): > 10 µM
IC50 (second compound 0.1 µM): > 10 µM
IC50 (second compound 0.316 µM): > 10 µM
IC50 (second compound 1 µM): > 10 µM
IC50 (second compound 3.16 µM): > 10 µM
IC50 (second compound 10 µM): > 10 µM
Compound: C=CC(=O)N1CCN(c2nc(=O)n(-c3c(C)ccnc3C(C)C)c3nc(-c4c(O)cccc4F)c(F)cc23)C(C)C1 (stereo not drawn) + CC(Nc1ncnc2nc[nH]c12)c1cc2cccc(Cl)c2c(=O)n1-c1ccccc1
viability, T/C [1]: 100%
viability, T/C [2]: 95.4%
viability, T/C [3]: 91.8%
viability, T/C [4]: 90.9%
viability, T/C [5]: 99.7%
viability, T/C [6]: 90.4%
viability, T/C [7]: 99%
viability, T/C [8]: 90.1%
viability, T/C [9]: 96.2%
viability, T/C [10]: 93.7%
viability, T/C [11]: 100%
viability, T/C [12]: 107%
viability, T/C [13]: 95.6%
viability, T/C [14]: 87.4%
viability, T/C [15]: 90%
viability, T/C [16]: 92.2%
viability, T/C [17]: 119%
viability, T/C [18]: 88.8%
viability, T/C [19]: 96.1%
viability, T/C [20]: 110%
viability, T/C [21]: 116%
viability, T/C [22]: 101%
viability, T/C [23]: 112%
viability, T/C [24]: 95%
viability, T/C [25]: 101%
viability, T/C [26]: 91.1%
viability, T/C [27]: 106%
viability, T/C [28]: 101%
viability, T/C [29]: 107%
viability, T/C [30]: 92.3%
viability, T/C [31]: 93.9%
viability, T/C [32]: 89%
viability, T/C [33]: 93.6%
viability, T/C [34]: 76.3%
viability, T/C [35]: 87.5%
viability, T/C [36]: 72.7%

IC50 (second compound 0.0316 µM): > 10 µM
IC50 (second compound 0.1 µM): > 10 µM
IC50 (second compound 0.316 µM): > 10 µM
IC50 (second compound 1 µM): > 10 µM
IC50 (second compound 3.16 µM): > 10 µM
IC50 (second compound 10 µM): > 10 µM
Compound: CC(Cn1ccc(-c2ccc(C#N)c(Cl)c2)n1)NC(=O)c1cc(C(C)O)[nH]n1 (stereo not drawn) + CC(Nc1ncnc2nc[nH]c12)c1cc2cccc(Cl)c2c(=O)n1-c1ccccc1
viability, T/C [1]: 91%
viability, T/C [2]: 109%
viability, T/C [3]: 101%
viability, T/C [4]: 90.2%
viability, T/C [5]: 93.7%
viability, T/C [6]: 97.9%
viability, T/C [7]: 98.2%
viability, T/C [8]: 94.8%
viability, T/C [9]: 94.9%
viability, T/C [10]: 103%
viability, T/C [11]: 101%
viability, T/C [12]: 88.3%
viability, T/C [13]: 92.3%
viability, T/C [14]: 104%
viability, T/C [15]: 95.7%
viability, T/C [16]: 93.1%
viability, T/C [17]: 98.5%
viability, T/C [18]: 102%
viability, T/C [19]: 92.7%
viability, T/C [20]: 108%
viability, T/C [21]: 114%
viability, T/C [22]: 92.1%
viability, T/C [23]: 94.4%
viability, T/C [24]: 84.1%
viability, T/C [25]: 89.6%
viability, T/C [26]: 102%
viability, T/C [27]: 116%
viability, T/C [28]: 97.3%
viability, T/C [29]: 106%
viability, T/C [30]: 94.5%
viability, T/C [31]: 98%
viability, T/C [32]: 83.4%
viability, T/C [33]: 84.3%
viability, T/C [34]: 98.9%
viability, T/C [35]: 90.1%
viability, T/C [36]: 78.8%

IC50 (second compound 0.0316 µM): 4.13 µM
IC50 (second compound 0.1 µM): 4.35 µM
IC50 (second compound 0.316 µM): 4.09 µM
IC50 (second compound 1 µM): 3.95 µM
IC50 (second compound 3.16 µM): 4 µM
IC50 (second compound 10 µM): 0.865 µM
Compound: CC1(C)CCC(Nc2ncc(C(F)(F)F)c(-c3c[nH]c4c(P(C)(C)=O)c(C#N)ccc34)n2)CN1 (stereo not drawn) + CC(Nc1ncnc2nc[nH]c12)c1cc2cccc(Cl)c2c(=O)n1-c1ccccc1
viability, T/C [1]: 77.7%
viability, T/C [2]: 61.8%
viability, T/C [3]: 58%
viability, T/C [4]: 59.9%
viability, T/C [5]: 66.5%
viability, T/C [6]: 1.23%
viability, T/C [7]: 92.4%
viability, T/C [8]: 57.1%
viability, T/C [9]: 62%
viability, T/C [10]: 64.4%
viability, T/C [11]: 68.6%
viability, T/C [12]: 1.55%
viability, T/C [13]: 81.3%
viability, T/C [14]: 57.7%
viability, T/C [15]: 58.3%
viability, T/C [16]: 64.1%
viability, T/C [17]: 64.2%
viability, T/C [18]: 0.31%
viability, T/C [19]: 75.4%
viability, T/C [20]: 61%
viability, T/C [21]: 60.8%
viability, T/C [22]: 63%
viability, T/C [23]: 61.9%
viability, T/C [24]: 0.97%
viability, T/C [25]: 80.1%
viability, T/C [26]: 69.1%
viability, T/C [27]: 63.4%
viability, T/C [28]: 67.2%
viability, T/C [29]: 63%
viability, T/C [30]: 0.64%
viability, T/C [31]: 72%
viability, T/C [32]: 59.5%
viability, T/C [33]: 55.1%
viability, T/C [34]: 53.8%
viability, T/C [35]: 30.2%
viability, T/C [36]: 1.26%
